Assay results from PMC10968976, “Targeting CDK9 in Cancer: An Integrated Approach of Combining In Silico Screening with Experimental Validation for Novel Degraders” (Current Issues in Molecular Biology, 2024).
Where two headings read alike, the source gives them in different places.

Experiments:
NCI-H358 cells = assay: Cell viability (cell-titer-glo), NCI-H358; assay type: cell-based; conditions: Homo sapiens, NIH H-358 cell line, 48 to 72 h, read-out: Estimated EC50
Experimental: (§1) The cell lines used in this study were purchased from ATCC (https://www.atcc.org, accessed on 18 December 2023) and maintained under standard conditions at 37 °C with a 5% CO2 atmosphere. NCI-H-358 cells were cultivated in 1X RPMI 1640 medium, while MIA-PaCa2 cells were cultured using 1X DMEM. Both culture media were supplemented with 10% fetal bovine serum and 1X Penicillin/Streptomycin (Gibco). For culturing the Melma-3M cells, IMDM media fortified with 20% fetal bovine serum and 1X Penicillin/Streptomycin was used. […]
(§2) Briefly, for cell viability experiments, after splitting, cells from each respective cell line were plated onto 96-well plates (MSP, Cat # CT-229185) at a density of about 1 × 10^4 cells/mL and 200 µL per well using the appropriate cell culture media after about 24 h at 37 °C, the cell media in each 96-well plate were replaced with media containing the various test compounds at varying concentrations. […] Each plate was gently mixed for ca. 10 min at room temperature and then transferred to a plate reader (Bio-Tek, Synergy HTX, Winooski, VT, USA, multimode reader) for chemiluminescence measurement as a proportional indicator of cell viability.
(§3) TB003 and TB008 have also been evaluated for cell growth inhibition and killing using two cell lines, NCI-H358, a non-small cell lung carcinoma-derived cell line, and MIA-PaCa-2, a pancreatic carcinoma-derived cell line. […]

MIA-PaCa-2 cells = assay: Cell viability (cell-titer-glo), MIA-PaCa-2; assay type: cell-based; conditions: MIA-PaCa 2 cell line, 48 to 72 h, read-out: Estimated EC50
Experimental: as §1, §2, §3

Row | Compound | EC50 (NCI-H358 cells) [µM] | EC50 (MIA-PaCa-2 cells; Homo sapiens) [µM] | EC50 (MIA-PaCa-2 cells) [µM]
1 | CC(=O)O[C@H]1C(=O)[C@@]2(C)[C@H]([C@H](OC(=O)c3ccccc3)[C@]3(O)C[C@H](OC(=O)[C@H](O)[C@@H](NC(=O)c4ccccc4)c4ccccc4)C(C)=C1C3(C)C)[C@]1(OC(C)=O)CO[C@@H]1C[C@@H]2O [Paclitaxel, paclitaxel] | 75 | 10 | 
2 | O=C1[O][Pt]2([NH][C@@H]3CCCC[C@H]3[NH]2)[O]C1=O [Oxaliplatin, oxaliplatin] |  |  | 100
